A short description of data set [1]: Docetaxel PK samples (end of infusion), arm 2. In kind it is in vivo, human. To be noted: arm 2, IV docetaxel with MK-2206.
Method: For the Q3W schedule, samples were taken in cycle 1 on days 1 to 3 as per the QOD schedule, then on days 5, 7, 15, and in cycle 2 on day 1. Blood samples were collected predose and just before the end of the infusion for carboplatin, paclitaxel, and docetaxel for archival and possible PK analysis. Another sample was taken 30 minutes into the infusion of paclitaxel. These samples were archived for possible future analysis to investigate if any unexpected toxicities may have been as a result of a PK interaction.
For data set [2] the following is noted: cited from earlier work.

Turning to `CC(=O)O[C@@]12CO[C@@H]1C[C@H](O)[C@@]1(C)C(=O)[C@H](O)C3=C(C)[C@@H](OC(=O)[C@H](O)[C@@H](NC(=O)OC(C)(C)C)c4ccccc4)C[C@@](O)([C@@H](OC(=O)c4ccccc4)[C@H]21)C3(C)C` [docetaxel], the mean end-of-infusion concentration in data set [1] worked out at 3.01 µg/mL. Further, in data set [2], the “mean end-of-infusion concentration, range of mean values in the literature” value is 1.68 to 4.06 µg/mL.
